Measured values taken from patent US20250101028A1, “HETEROCYCLIC COMPOUNDS, COMPOSITIONS THEREOF, AND METHODS OF TREATMENT THEREWITH” (BeiGene, Ltd., priority 2022, published 2025).

Molecular target: T1, GST-tagged GDP-loaded KRAS G12V (amino acids 1-169) (Homo sapiens, UniProt P01116, G12V)
T1 construct: GST-tagged GDP-loaded KRAS G12V (amino acids 1-169); made in house; host or cells: E. coli
Assay: KRAS G12V probe displacement assay (TR-FRET)
Format: binding
Conditions: displacement of biotinylated probe 2 from GDP-loaded KRAS G12V
How it was run: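 GST-tagged GDP-loaded KRAS 1-169 (WT 3 nM; G12V 2 nM final) preincubated 1 h at 24 °C with serially diluted compound in HEPES pH 7.5 buffer, then biotinylated probe added (probe 1 60 nM for WT; probe 2 2.5 nM for G12V), 1 h. Anti-GST-Tb/streptavidin-XL665 TR-FRET 665/620 ratio; IC50 by four-parameter fit.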

T1 sequence (P01116 1-169 isoform P01116-2 G12V): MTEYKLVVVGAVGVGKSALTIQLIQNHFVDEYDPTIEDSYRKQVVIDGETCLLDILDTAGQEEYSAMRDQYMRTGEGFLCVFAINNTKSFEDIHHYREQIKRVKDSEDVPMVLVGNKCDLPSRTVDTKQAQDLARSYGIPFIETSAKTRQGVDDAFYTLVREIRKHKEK

SMILES	IC50 [µM]
Nc1nc2c(-c3c(C(F)(F)F)cc4c(N5CCC6(CC5)CN(CC(F)(F)F)C(=O)O6)nc(OC[C@@]56CCCN5C[C@H](F)C6)nc4c3F)ccc(F)c2s1 [Example 91, 8-(7-(2-amino-7-fluorobenzo[d]thiazol-4-yl)-8-fluoro-2-(((2R,7aS)-2-fluorotetrahydro-1H-pyrrolizin-7a(5H)-yl)methoxy)-6-(trifluoromethyl)quinazolin-4-yl)-3-(2,2,2-trifluoroethyl)-1-oxa-3,8-diazaspiro[4.5]decan-2-one]	0.0038
Nc1nc2c(-c3c(C(F)(F)F)cc4c(N5CCC6(CC5)CN(CC5CC5)C(=O)O6)nc(OC[C@@]56CCCN5C[C@H](F)C6)nc4c3F)ccc(F)c2s1 [Example 92, 8-(7-(2-amino-7-fluorobenzo[d]thiazol-4-yl)-8-fluoro-2-(((2R,7aS)-2-fluorotetrahydro-1H-pyrrolizin-7a(5H)-yl)methoxy)-6-(trifluoromethyl)quinazolin-4-yl)-3-(cyclopropylmethyl)-1-oxa-3,8-diazaspiro[4.5]decan-2-one]	0.0028
Nc1nc2c(-c3c(C(F)(F)F)cc4c(N5CCC6(CC5)CN(CCO)C(=O)O6)nc(OC[C@@]56CCCN5C[C@H](F)C6)nc4c3F)ccc(F)c2s1 [Example 93, 8-(7-(2-amino-7-fluorobenzo[d]thiazol-4-yl)-8-fluoro-2-(((2R,7aS)-2-fluorotetrahydro-1H-pyrrolizin-7a(5H)-yl)methoxy)-6-(trifluoromethyl)quinazolin-4-yl)-3-(2-hydroxyethyl)-1-oxa-3,8-diazaspiro[4.5]decan-2-one]	0.0022
COCCN1CC2(CCN(c3nc(OC[C@@]45CCCN4C[C@H](F)C5)nc4c(F)c(-c5ccc(F)c6sc(N)nc56)c(C(F)(F)F)cc34)CC2)OC1=O [Example 94, 8-(7-(2-amino-7-fluorobenzo[d]thiazol-4-yl)-8-fluoro-2-(((2R,7aS)-2-fluorotetrahydro-1H-pyrrolizin-7a(5H)-yl)methoxy)-6-(trifluoromethyl)quinazolin-4-yl)-3-(2-methoxyethyl)-1-oxa-3,8-diazaspiro[4.5]decan-2-one]	0.0025
Nc1nc2c(-c3c(C(F)(F)F)cc4c(N5CCC6(CCNC6=O)CC5)nc(OC[C@@]56CCCN5C[C@H](F)C6)nc4c3F)ccc(F)c2s1 [Example 95, 8-(7-(2-amino-7-fluorobenzo[d]thiazol-4-yl)-8-fluoro-2-(((2R,7aS)-2-fluorotetrahydro-1H-pyrrolizin-7a(5H)-yl)methoxy)-6-(trifluoromethyl)quinazolin-4-yl)-2,8-diazaspiro[4.5]decan-1-one]	0.0027
Nc1nc2c(-c3c(C(F)(F)F)cc4c(N5CCC6(CC5)CNC(=O)C6)nc(OC[C@@]56CCCN5C[C@H](F)C6)nc4c3F)ccc(F)c2s1 [Example 96, 8-(7-(2-amino-7-fluorobenzo[d]thiazol-4-yl)-8-fluoro-2-(((2R,7aS)-2-fluorotetrahydro-1H-pyrrolizin-7a(5H)-yl)methoxy)-6-(trifluoromethyl)quinazolin-4-yl)-2,8-diazaspiro[4.5]decan-3-one]	0.0015
CN1CC2(CCN(c3nc(OC[C@@]45CCCN4C[C@H](F)C5)nc4c(F)c(-c5ccc(F)c6sc(N)nc56)c(C(F)(F)F)cc34)CC2)CC1=O [Example 97, 8-(7-(2-amino-7-fluorobenzo[d]thiazol-4-yl)-8-fluoro-2-(((2R,7aS)-2-fluorotetrahydro-1H-pyrrolizin-7a(5H)-yl)methoxy)-6-(trifluoromethyl)quinazolin-4-yl)-2-methyl-2,8-diazaspiro[4.5]decan-3-one]	0.0038
Nc1nc2c(-c3c(C(F)(F)F)cc4c(N5CCC6(CC5)CNC(=O)CO6)nc(OC[C@@]56CCCN5C[C@H](F)C6)nc4c3F)ccc(F)c2s1 [Example 98, 9-(7-(2-amino-7-fluorobenzo[d]thiazol-4-yl)-8-fluoro-2-(((2R,7aS)-2-fluorotetrahydro-1H-pyrrolizin-7a(5H)-yl)methoxy)-6-(trifluoromethyl)quinazolin-4-yl)-1-oxa-4,9-diazaspiro[5.5]undecan-3-one]	0.051
Nc1nc2c(-c3c(C(F)(F)F)cc4c(N5CCC6(CCNC(=O)O6)CC5)nc(OC[C@@]56CCCN5C[C@H](F)C6)nc4c3F)ccc(F)c2s1 [Example 99, 9-(7-(2-amino-7-fluorobenzo[d]thiazol-4-yl)-8-fluoro-2-(((2R,7aS)-2-fluorotetrahydro-1H-pyrrolizin-7a(5H)-yl)methoxy)-6-(trifluoromethyl)quinazolin-4-yl)-1-oxa-3,9-diazaspiro[5.5]undecan-2-one]	0.0028
Cc1cc(N)nc(-c2c(Cl)cc3c(N4CC[C@H](O)C4)nc(OC[C@@]45CCCN4C[C@H](F)C5)nc3c2F)c1C(F)(F)F [Example 102, (3S)-1-(7-(6-amino-4-methyl-3-(trifluoromethyl)pyridin-2-yl)-6-chloro-8-fluoro-2-(((2R,7aS)-2-fluorotetrahydro-1H-pyrrolizin-7a(5H)-yl)methoxy)quinazolin-4-yl)pyrrolidin-3-ol]	0.046
Cc1cc(N)nc(-c2c(Cl)cc3c(N4CCC(C#N)CC4)nc(OC[C@@]45CCCN4C[C@H](F)C5)nc3c2F)c1C(F)(F)F [Example 103, 1-(7-(6-amino-4-methyl-3-(trifluoromethyl)pyridin-2-yl)-6-chloro-8-fluoro-2-(((2R,7aS)-2-fluorotetrahydro-1H-pyrrolizin-7a(5H)-yl)methoxy)quinazolin-4-yl)piperidine-4-carbonitrile]	0.011
Cc1cc(N)nc(-c2c(Cl)cc3c(N4CCOC[C@@H]4C)nc(OC[C@@]45CCCN4C[C@H](F)C5)nc3c2F)c1C(F)(F)F [Example 105, 6-(6-chloro-8-fluoro-2-(((2R,7aS)-2-fluorotetrahydro-1H-pyrrolizin-7a(5H)-yl)methoxy)-4-((S)-3-methylmorpholino)quinazolin-7-yl)-4-methyl-5-(trifluoromethyl)pyridin-2-amine]	0.025
Cc1cc(N)nc(-c2c(Cl)cc3c(N4CCC5(CC4)CN(C)C(=O)O5)nc(OC[C@@]45CCCN4C[C@H](F)C5)nc3c2F)c1C(F)(F)F [Example 106, 8-(7-(6-amino-4-methyl-3-(trifluoromethyl)pyridin-2-yl)-6-chloro-8-fluoro-2-(((2R,7aS)-2-fluorotetrahydro-1H-pyrrolizin-7a(5H)-yl)methoxy)quinazolin-4-yl)-3-methyl-1-oxa-3,8-diazaspiro[4.5]decan-2-one]	0.023
Cc1nc(N)nc(-c2c(Cl)cc3c(N4CCC(C#N)CC4)nc(OC[C@@]45CCCN4C[C@H](F)C5)nc3c2F)c1C(F)(F)F [Example 107, 1-(7-(2-amino-6-methyl-5-(trifluoromethyl)pyrimidin-4-yl)-6-chloro-8-fluoro-2-(((2R,7aS)-2-fluorotetrahydro-1H-pyrrolizin-7a(5H)-yl)methoxy)quinazolin-4-yl)piperidine-4-carbonitrile]	0.073
COc1cc(N)nc(-c2c(Cl)cc3c(N4CCC(C#N)CC4)nc(OC[C@@]45CCCN4C[C@H](F)C5)nc3c2F)c1C(F)(F)F [Example 108, 1-(7-(6-amino-4-methoxy-3-(trifluoromethyl)pyridin-2-yl)-6-chloro-8-fluoro-2-(((2R,7aS)-2-fluorotetrahydro-1H-pyrrolizin-7a(5H)-yl)methoxy)quinazolin-4-yl)piperidine-4-carbonitrile]	> 1
Nc1cc(Cl)c(C(F)(F)F)c(-c2ncc3c(NC4CC4)nc(OC[C@@]45CCCN4C[C@H](F)C5)nc3c2F)c1 [Example 110, 7-(5-amino-3-chloro-2-(trifluoromethyl)phenyl)-N-cyclopropyl-8-fluoro-2-(((2R,7aS)-2-fluorotetrahydro-1H-pyrrolizin-7a(5H)-yl)methoxy) pyrido[4,3-d]pyrimidin-4-amine]	0.017
Nc1cc(Cl)c(C(F)(F)F)c(-c2ncc3c(NC4CCC4)nc(OC[C@@]45CCCN4C[C@H](F)C5)nc3c2F)c1 [Example 111, 7-(5-amino-3-chloro-2-(trifluoromethyl)phenyl)-N-cyclobutyl-8-fluoro-2-(((2R,7aS)-2-fluorotetrahydro-1H-pyrrolizin-7a(5H)-yl)methoxy) pyrido[4,3-d]pyrimidin-4-amine]	0.04
Nc1cc(Cl)c(C(F)(F)F)c(-c2ncc3c(NC45CC(C4)C5)nc(OC[C@@]45CCCN4C[C@H](F)C5)nc3c2F)c1 [Example 112, 7-(5-amino-3-chloro-2-(trifluoromethyl)phenyl)-N-(bicyclo [1.1.1]pentan-1-yl)-8-fluoro-2-(((2R,7aS)-2-fluorotetrahydro-1H-pyrrolizin-7a(5H)-yl)methoxy) pyrido[4,3-d]pyrimidin-4-amine]	0.019
Nc1cc(Cl)c(C(F)(F)F)c(-c2ncc3c(N4CCOCC4)nc(OC[C@@]45CCCN4C[C@H](F)C5)nc3c2F)c1 [Example 113, 3-chloro-5-(8-fluoro-2-(((2R,7aS)-2-fluorotetrahydro-1H-pyrrolizin-7a(5H)-yl)methoxy)-4-morpholinopyrido[4,3-d]pyrimidin-7-yl)-4-(trifluoromethyl)aniline]	0.011
C[C@H]1COCCN1c1nc(OC[C@@]23CCCN2C[C@H](F)C3)nc2c(F)c(-c3cc(N)cc(Cl)c3C(F)(F)F)ncc12 [Example 114, 3-chloro-5-(8-fluoro-2-(((2R,7aS)-2-fluorotetrahydro-1H-pyrrolizin-7a(5H)-yl)methoxy)-4-((S)-3-methylmorpholino)pyrido[4,3-d]pyrimidin-7-yl)-4-(trifluoromethyl)aniline]	0.0092
C[C@@H]1COCCN1c1nc(OC[C@@]23CCCN2C[C@H](F)C3)nc2c(F)c(-c3cc(N)cc(Cl)c3C(F)(F)F)ncc12 [Example 115, 3-chloro-5-(8-fluoro-2-(((2R,7aS)-2-fluorotetrahydro-1H-pyrrolizin-7a(5H)-yl)methoxy)-4-((R)-3-methylmorpholino)pyrido[4,3-d]pyrimidin-7-yl)-4-(trifluoromethyl)aniline]	0.0065
